The subject of one assay is HEK293T cells. Description: In vitro Luc-mRNA transfection, luciferase luminescence expression in HEK293T cells. Format: cell-based, human. Also on record: unit not given here. Here is the method: In Vitro Transfection Activity of DNPs in Human Embrionic Kidney (HEK) 293T Cells: HEK293T cells were seeded into 96-well plates (20,000 cells/well/200 μL) and cultured for 24 h at 37° C. in 5% CO2 complete cell culture media. Screening experiments were performed with nonoptimized DNPs containing naked nucleoside-modified mRNA (Karikó, et al., Immunity 2005, 23, 165-175; Pardi, et al., Methods Mol. Biol. 2013, 969, 29-42), of molar mass 664,341 encoding firefly luciferase (mRNA-Luc). A constant concentration of mRNA-Luc of 125 ng/well was used. The transIT (TransIT-mRNA transfection Kit from Mirus Bio) and MC3-based LNPs (MC3: DLin-MC3-DMA, which is the FDA approved LNP for mRNA delivery) were used as positive controls for cell transfection at a concentration of mRNA-Luc of 125 ng/well, identical to that of the tested DNPs. Subsequently cells were cultured for 24 h, the medium was aspirated under reduced pressure by a glass pipette and cells were lysed with 30 μL/well of cell culture lysis reagent (Promega). The luminescence intensity corresponding to the luciferase protein expressed was characterized and analyzed.
In vitro mRNA Delivery: Human embryonic kidney (HEK) 293T cells (American Type Culture Collection) were cultured in Dulbecco's modified Eagle's medium (DMEM) supplemented with 10% inactivated fetal bovine serum (FBS) (Gemini Bio-Products), 2 mM L-glutamine and 100 U/mL penicillin/streptomycin (Life Technologies) (complete medium). For in vitro screening experiments, HEK293T cells were seeded into 96-well plates (20,000 cells/well/200 μL) and cultured for 24 h in at 37° C. and 5% CO2 in complete media. Cell were transfected with IAJDs with encapsulated naked nucleoside-modified mRNA encoding firefly luciferase (mRNA-Luc) with fixed concentration of mRNA-Luc, 125 ng per well. The transIT (TransIT®-mRNA Transfection Kit, Mirus Bio) was used as a positive control for cell transfection, accordingly per manufacturer protocol and added to cells at the concentration of mRNA-Luc, 125 ng per well, the same as for tested particles. Cells were further cultured for 24 h, then medium was aspirated, and cells were lysed with 30 μL/well of cell culture lysis reagent (Promega). For the characterization of luminescence intensity, 2.5 μL of the lysed cells was mixed with 10 μL of luciferase assay substrate and luminescence was analyzed using a MiniLumat LB 9506 luminometer (Berthold/EG&G; Wallac).
Luminescence characterization for in vitro transfection experiments was performed by determining the luminescence intensity for in vitro Luc-mRNA transfection experiments using a MiniLumat LB 9506 luminometer (Berthold/EG&G; Wallac).
For in vitro Luc-mRNA transfection screening experiments, human embryonic kidney 293 cells (HEK 293) were seeded into 96-well plates (20,000 cells/well/200 μL) and cultured for 18-20 hours at 37° C., 5% CO2 in complete Dulbecco's modified Eagle's medium (DMEM) supplemented with 2 mM L-glutamine (Life Technologies), 100 U/mL penicillin/streptomycin (Invitrogen) and 10% fetal bovine serum (FBS, Gemini Bio-Products). Cells were transfected with DNPs with encapsulated naked nucleoside-modified mRNA encoding firefly luciferase (Luc-mRNA) at constant concentration of Luc-mRNA, 125 ng per well. Luc-mRNA complexed with TransIT (TransIT®-mRNA Transfection Kit, Mirus Bio) or encapsulated in FDA approved MC3-based LNPs were used as positive controls for cell transfection, at the concentration of Luc-mRNA of 125 ng per well, the same as for tested DNPs. After transfection cells were further cultured at 37° C., 5% CO2 for 18-20 hours, then medium was aspirated and cells were lysed with luciferase cell culture lysis reagent (30 μL/well) (Promega, Madison, WI). […]

A further assay deals with lung. Description: In vivo mRNA delivery, IVIS imaging of organs: lung. Also on record: species or system mice; key to Organs with luminescence: lung: strong: Strong meant the luminescence intensity in that organ was relatively high, compared to other organs; weak: Weak meant the luminescence intensity in that organ was relatively low, compared to other organs. The note with it: for Organs with luminescence: lung (weak/strong): Table 14. As for the experimental part: The exposure time was 1 min.
Tissue luminescence signal was measured on the IVIS imaging system using an exposure time of 60 seconds using medium binning (binning=8) to ensure that the signal obtained was within operative detection range. […] Bioluminescence imaging was performed as described above.
Tissue luminescence signal was measured on the IVIS imaging system using a certain exposure time (60, 30 or 15 seconds) and medium binning (binning=8) to ensure that the signal obtained was within operative detection range.

The mark [1] stands for this setting: HEK293T cells, Luc-mRNA 125 ng/well, n=3.

Consider `CCCCCCCCCCCCOc1cc(COC(=O)CCCN2CCN(CCO)CC2)cc(OCCCCCCCCCCCC)c1` [IAJD 71, 3,5-Bis(dodecyloxy)benzyl 4-(4-(2-hydroxyethyl)piperazin-1-yl)butanoate], for which the Luminescence with HEK293T cells (setting [1]) is given as 473,548. Besides, in the assay with lung (imaging 5 h after injection), the “Organs with luminescence: lung (weak/strong)” value (from here on “Organs … (weak/strong)”) is reported as “Lung (weak),”. In the assay on lung (Table 17, mice, IVIS, 4-6 h after injection, intensity relative to other organs), the “Organs with luminescence: lung” value was “Lung (weak),”.
Take `CCCCCCCCCCCCCCOc1cc(COC(=O)CCCN2CCN(C)CC2)cc(OCCCCCCCCCCCCCC)c1` [IAJD 74, 3,5-Bis(tetradecyloxy)benzyl 4-(4-methylpiperazin-1-yl)butanoate]: the Luminescence in the assay with HEK293T cells (setting [1]) is listed as 3,926. Besides, the “Organs … (weak/strong)” value in the assay with lung (imaging 5 h after injection) is listed as “Lung (weak),”.
Regarding `CCCCCCCCCCCCCCCCOc1cc(COC(=O)CCCN2CCN(C)CC2)cc(OCCCCCCCCCCCCCCCC)c1` [IAJD 75, 3,5-Bis(hexadecyloxy)benzyl 4-(4-methylpiperazin-1-yl)butanoate], the Luminescence in the assay on HEK293T cells (setting [1]) is recorded as 68,572. For the same molecule, the “Organs … (weak/strong)” value in the assay with lung (imaging 5 h after injection) is “Lung (weak),”.
As to `CCCCC(CC)COc1cc(COC(=O)CCCN2CCN(C)CC2)cc(OCC(CC)CCCC)c1` (stereo not shown) [IAJD 76, 3,5-Bis((2-ethylhexyl)oxy)benzyl 4-(4-methylpiperazin-1-yl)butanoate], the Luminescence in the assay with HEK293T cells (setting [1]) was 17. Moreover, the “Organs … (weak/strong)” value in the assay on lung (imaging 5 h after injection) is “Lung (weak),”.
For `CCCCCCCCCOc1cc(COC(=O)CCCN2CCN(C)CC2)cc(OCCCCCCCCC)c1` [IAJD 77, 3,5-Bis(nonyloxy)benzyl 4-(4-methylpiperazin-1-yl)butanoate], in that order: 129 and “Lung (weak),”.
For the molecule `CCCCCCCCCCCCOc1cc(COC(=O)CCCN2CCN(C)CC2)cc(OCCCCCCCCCCCC)c1OCCCCCCCCCCCC` [IAJD 79, 3,4,5-Tris(dodecyloxy)benzyl 4-(4-methylpiperazin-1-yl)butanoate], the Luminescence in the assay on HEK293T cells (setting [1]) is listed as 27,615. The “Organs … (weak/strong)” value with lung (imaging 6 h after injection) is “Lung (weak),”.
`CCCCCCCCCCCCOCC(COCCCCCCCCCCCC)(COCCCCCCCCCCCC)COC(=O)CCCN1CCN(CCO)CC1` [IAJD 83, 3-(Dodecyloxy)-2,2-bis((dodecyloxy)methyl)propyl 4-(4-(2-hydroxyethyl)piperazin-1-yl)butanoate]: in the assay on HEK293T cells (setting [1]), the Luminescence was 68,691. Moreover, the “Organs … (weak/strong)” value with lung (imaging 5 h after injection) was “Lung (weak),”.
With `CCCCCCCCCCCCOc1cc(COC(=O)CCN2CCN(C)CC2)cc(OCCCCCCCCCCCC)c1` [IAJD 84, 3,5-Bis(dodecyloxy)benzyl 3-(4-methylpiperazin-1-yl)propanoate], the Luminescence with HEK293T cells (setting [1]) turned out to be 205. For the same molecule, in the assay on lung (imaging 5 h after injection), the “Organs … (weak/strong)” value is recorded as “Lung (weak),”.
`CCCCCCCOC(=O)CCCCOc1cc(COC(=O)CCCN2CCN(C)CC2)cc(OCCCCC(=O)OCCCCCCC)c1` [IAJD 85, Diheptyl 5,5′-((5-(((4-(4-methylpiperazin-1-yl)butanoyl)oxy)methyl)-1,3-phenylene)bis(oxy)) dipentanoate]: the Luminescence with HEK293T cells (setting [1]) was 47,369. Moreover, in the assay on lung (imaging 5 h after injection), the “Organs … (weak/strong)” value was “Lung (weak),”.
Turning to `CCCCC(CC)COc1cc(COC(=O)CCCN2CCN(CCO)CC2)cc(OCC(CC)CCCC)c1` (stereo not shown) [IAJD 87, 3,5-Bis((2-ethylhexyl)oxy)benzyl 4-(4-(2-hydroxyethyl)piperazin-1-yl)butanoate], the Luminescence in the assay on HEK293T cells (setting [1]) turned out to be 33. In addition, the “Organs … (weak/strong)” value in the assay on lung (imaging 6 h after injection) was “Lung (weak),”.
The matching figures for `CCCCCCCCOc1cc(COC(=O)CCCN2CCN(C)CC2)cc(OCCCCCCCC)c1` [IAJD 88, 3,5-Bis(octyloxy)benzyl 4-(4-methylpiperazin-1-yl)butanoate]: 17 and “Lung (weak),”.
On to `CCCCCCCCOc1cc(COC(=O)CCCN2CCN(CCO)CC2)cc(OCCCCCCCC)c1` [IAJD 89], for which the Luminescence in the assay on HEK293T cells (setting [1]) was 55. Further, the “Organs … (weak/strong)” value in the assay with lung (imaging 6 h after injection) is listed as “Lung (weak),”.
With `CCCCCCCCCCOc1cc(COC(=O)CCCN2CCN(CCO)CC2)cc(OCCCCCCCCCC)c1` [IAJD 91, 3,5-Bis(decyloxy)benzyl 4-(4-(2-hydroxyethyl)piperazin-1-yl)butanoate], the Luminescence in the assay on HEK293T cells (setting [1]) is on record as 65,255. For the same molecule, in the assay on lung (imaging 6 h after injection), the “Organs … (weak/strong)” value was “Lung (weak),”.
As for `CCCCC(CC)COC(=O)CCCCOc1cc(COC(=O)CCCN2CCN(CCO)CC2)cc(OCCCCC(=O)OCC(CC)CCCC)c1` (stereo not shown) [IAJD 95], in the assay on HEK293T cells (setting [1]), the Luminescence is recorded as 153,564. Moreover, the “Organs … (weak/strong)” value in the assay on lung (imaging 6 h after injection) is “Lung (weak),”.
Take `CCCCC(CC)COc1cc(COC(=O)CCCN2CCN(C)CC2)cc(OCC(CC)CCCC)c1OCC(CC)CCCC` (stereo not shown) [IAJD 96, 3,4,5-Tris((2-ethylhexyl)oxy)benzyl 4-(4-methylpiperazin-1-yl)butanoate]: the Luminescence in the assay on HEK293T cells (setting [1]) is on record as 22,799. Also, in the assay with lung (imaging 5 h after injection), the “Organs … (weak/strong)” value is listed as “Lung (weak),”.
For `CCCCC(CC)COc1cc(COC(=O)CCCN2CCN(CCO)CC2)cc(OCC(CC)CCCC)c1OCC(CC)CCCC` (stereo not shown) [IAJD 97, 3,4,5-Tris((2-ethylhexyl)oxy)benzyl 4-(4-(2-hydroxyethyl)piperazin-1-yl)butanoate], in that order: 342,016 and “Lung (weak),”.
Turning to `CCCCCCCCCCCCCCCCCCOc1cc(COC(=O)CCCN2CCN(C)CC2)cc(OCCCCCCCCCCCCCCCCCC)c1` [IAJD 98, 3,5-Bis(octadecyloxy)benzyl 4-(4-methylpiperazin-1-yl)butanoate], the Luminescence in the assay with HEK293T cells (setting [1]) was 22,209. In addition, the “Organs … (weak/strong)” value in the assay on lung (imaging 6 h after injection) is recorded as “Lung (weak),”.
For the molecule `CCCCCCCCCCCCCCCCCCOc1cc(COC(=O)CCCN2CCN(CCO)CC2)cc(OCCCCCCCCCCCCCCCCCC)c1` [IAJD 99, 3,5-Bis(octadecyloxy)benzyl 4-(4-(2-hydroxyethyl)piperazin-1-yl)butanoate], the Luminescence with HEK293T cells (setting [1]) is reported as 87,433. Moreover, the “Organs … (weak/strong)” value in the assay on lung (imaging 6 h after injection) is on record as “Lung (weak),”.
As for “Diheptyl 5,5′-((5-(((4-(4-methylpiperazin-1-yl)butanoyl)oxy)methyl)-1,3-phenylene)bis(oxy)) dipentanoate [IAJD 85]”, the Luminescence in the assay with HEK293T cells (Acetate buffer 10 mM pH 4.0, CIAJD 4 mg/mL, CLuc-mRNA 0.05 mg/mL, HEK293T, 125 ng/well) is given as 734; with HEK293T cells (Acetate buffer 10 mM pH 4.0, CIAJD 4 mg/mL, CLuc-mRNA 0.10 mg/mL, HEK293T, 125 ng/well), 2,498; in the assay on HEK293T cells (Citrate buffer 10 mM pH 3.0, CIAJD 4 mg/mL, CLuc-mRNA 0.05 mg/mL, HEK293T, 125 ng/well), 1,176.
